Test results as given in US20230017786A1, “DEXTR[…] A DISEASE-MODIFYING TREATMENT FOR NEUROPSYCHIATRIC DISORDERS AND DISEASES” (priority 2020, published 2023).
Several values for one entry are separate records, joined by “and”; a condition that tells them apart may be missing. Identical values can stand only once.

Key:
[1] = target: human GluN1-GluN2C NMDA receptor (Homo sapiens, UniProt Q05586+Q14957); assay: Manual patch clamp trapping assay, hGluN1/hGluN2C-CHO cells; conditions: test item 10 μM
[2] = target: T1, human NMDA receptor GluN1-GluN2A (Homo sapiens, UniProt Q05586+Q12879); assay: FLIPR calcium assay, quinolinic acid, gentamicin, dextromethadone (Example 5 Part II), GluN1-GluN2A-CHO; type: cell-based; design: calcium response (mean±SEM): unit not given here; conditions: 10 μM glycine; for calcium response (mean±SEM): GluN2A, n=42
T1 construct: expressed in transfected cells; host or cells: CHO
How it was run: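 CHO lines expressing diheteromeric human GluN1/GluN2A–D, loaded 1 h with Fluo-4, tested by FLIPR for intracellular calcium with 10 μM glycine present. Quinolinic acid, gentamicin and test items were run as concentration-response curves, alone or combined. EC50 obtained from a four-parameter Hill fit.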

GluN1/GluN2D receptor = target: T2, GluN1/GluN2D receptor (Homo sapiens, UniProt O15399+Q05586); assay: Automated patch clamp (QPatch HTX) in presence of 1 mM extracellular magnesium; type: cell-based; conditions: 10 μM dextromethadone, 1 mM Mg2+
T2 construct: expressed in transfected cells; host or cells: CHO
Experimental: Automated patch clamp experiments were performed in QPatch HTX (Sophion Bioscience A/S, Ballerup, Denmark) using CHO cells stably expressing recombinant diheteromeric human NMDAR. Cells were clamped at −80 mV holding potential in presence of 1 mM extracellular magnesium. Voltage protocol included a depolarizing 2 s step pulse to +60 mV, to check quality of the seal and cell NMDAR expression level, followed by a 2 s ramp back to holding potential.

5-HT2A receptor = 5-HT2A receptor (Homo sapiens, UniProt P28223); conditions: agonist; Rickli et al., 2018; cited from earlier work
[3] = Phase 1 SAD and MAD studies, pharmacokinetics
[4] = target: T3, human NMDA receptor GluN1-GluN2B (Homo sapiens, UniProt Q05586+Q13224); assay: cell-based; type: cell-based
T3 construct: expressed in transfected cells; host or cells: CHO
T3 sequence (Q13224 27-1484, other chains not shown): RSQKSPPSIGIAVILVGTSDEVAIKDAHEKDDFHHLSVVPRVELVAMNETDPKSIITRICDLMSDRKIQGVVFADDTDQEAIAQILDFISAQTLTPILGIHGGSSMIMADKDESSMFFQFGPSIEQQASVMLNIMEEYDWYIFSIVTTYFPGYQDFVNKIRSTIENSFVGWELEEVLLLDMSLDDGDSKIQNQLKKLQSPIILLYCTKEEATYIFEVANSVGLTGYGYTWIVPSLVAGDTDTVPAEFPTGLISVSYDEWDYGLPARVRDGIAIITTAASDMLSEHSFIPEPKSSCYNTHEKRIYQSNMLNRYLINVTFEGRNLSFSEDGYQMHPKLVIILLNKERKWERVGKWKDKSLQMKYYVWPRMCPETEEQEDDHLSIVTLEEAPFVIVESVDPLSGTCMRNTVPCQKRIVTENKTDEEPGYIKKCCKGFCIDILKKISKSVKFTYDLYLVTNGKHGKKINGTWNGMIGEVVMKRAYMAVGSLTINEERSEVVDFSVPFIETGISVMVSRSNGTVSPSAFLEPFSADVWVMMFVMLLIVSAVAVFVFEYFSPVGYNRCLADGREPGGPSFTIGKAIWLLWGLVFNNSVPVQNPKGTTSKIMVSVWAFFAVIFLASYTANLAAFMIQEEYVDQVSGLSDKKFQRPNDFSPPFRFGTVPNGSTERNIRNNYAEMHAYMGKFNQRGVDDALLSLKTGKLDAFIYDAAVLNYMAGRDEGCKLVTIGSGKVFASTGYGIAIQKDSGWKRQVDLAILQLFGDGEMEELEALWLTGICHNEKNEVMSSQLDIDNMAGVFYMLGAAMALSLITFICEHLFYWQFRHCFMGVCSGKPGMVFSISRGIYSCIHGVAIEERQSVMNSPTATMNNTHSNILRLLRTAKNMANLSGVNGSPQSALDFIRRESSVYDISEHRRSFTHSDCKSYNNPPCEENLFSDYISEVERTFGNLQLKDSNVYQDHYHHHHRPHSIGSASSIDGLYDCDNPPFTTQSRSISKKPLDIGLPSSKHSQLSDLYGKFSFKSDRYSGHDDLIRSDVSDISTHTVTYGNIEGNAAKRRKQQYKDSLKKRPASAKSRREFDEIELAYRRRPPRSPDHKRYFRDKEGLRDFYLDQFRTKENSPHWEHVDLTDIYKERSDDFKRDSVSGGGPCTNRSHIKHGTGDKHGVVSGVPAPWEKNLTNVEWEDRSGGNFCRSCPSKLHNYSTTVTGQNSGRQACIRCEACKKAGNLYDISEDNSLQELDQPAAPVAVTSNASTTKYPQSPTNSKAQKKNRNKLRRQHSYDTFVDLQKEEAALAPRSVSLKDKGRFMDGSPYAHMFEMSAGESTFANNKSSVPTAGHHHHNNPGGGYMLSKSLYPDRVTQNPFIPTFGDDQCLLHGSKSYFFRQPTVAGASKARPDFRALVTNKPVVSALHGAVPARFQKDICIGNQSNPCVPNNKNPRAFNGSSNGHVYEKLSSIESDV

T1 sequence (Q12879 23-1464, other chains not shown): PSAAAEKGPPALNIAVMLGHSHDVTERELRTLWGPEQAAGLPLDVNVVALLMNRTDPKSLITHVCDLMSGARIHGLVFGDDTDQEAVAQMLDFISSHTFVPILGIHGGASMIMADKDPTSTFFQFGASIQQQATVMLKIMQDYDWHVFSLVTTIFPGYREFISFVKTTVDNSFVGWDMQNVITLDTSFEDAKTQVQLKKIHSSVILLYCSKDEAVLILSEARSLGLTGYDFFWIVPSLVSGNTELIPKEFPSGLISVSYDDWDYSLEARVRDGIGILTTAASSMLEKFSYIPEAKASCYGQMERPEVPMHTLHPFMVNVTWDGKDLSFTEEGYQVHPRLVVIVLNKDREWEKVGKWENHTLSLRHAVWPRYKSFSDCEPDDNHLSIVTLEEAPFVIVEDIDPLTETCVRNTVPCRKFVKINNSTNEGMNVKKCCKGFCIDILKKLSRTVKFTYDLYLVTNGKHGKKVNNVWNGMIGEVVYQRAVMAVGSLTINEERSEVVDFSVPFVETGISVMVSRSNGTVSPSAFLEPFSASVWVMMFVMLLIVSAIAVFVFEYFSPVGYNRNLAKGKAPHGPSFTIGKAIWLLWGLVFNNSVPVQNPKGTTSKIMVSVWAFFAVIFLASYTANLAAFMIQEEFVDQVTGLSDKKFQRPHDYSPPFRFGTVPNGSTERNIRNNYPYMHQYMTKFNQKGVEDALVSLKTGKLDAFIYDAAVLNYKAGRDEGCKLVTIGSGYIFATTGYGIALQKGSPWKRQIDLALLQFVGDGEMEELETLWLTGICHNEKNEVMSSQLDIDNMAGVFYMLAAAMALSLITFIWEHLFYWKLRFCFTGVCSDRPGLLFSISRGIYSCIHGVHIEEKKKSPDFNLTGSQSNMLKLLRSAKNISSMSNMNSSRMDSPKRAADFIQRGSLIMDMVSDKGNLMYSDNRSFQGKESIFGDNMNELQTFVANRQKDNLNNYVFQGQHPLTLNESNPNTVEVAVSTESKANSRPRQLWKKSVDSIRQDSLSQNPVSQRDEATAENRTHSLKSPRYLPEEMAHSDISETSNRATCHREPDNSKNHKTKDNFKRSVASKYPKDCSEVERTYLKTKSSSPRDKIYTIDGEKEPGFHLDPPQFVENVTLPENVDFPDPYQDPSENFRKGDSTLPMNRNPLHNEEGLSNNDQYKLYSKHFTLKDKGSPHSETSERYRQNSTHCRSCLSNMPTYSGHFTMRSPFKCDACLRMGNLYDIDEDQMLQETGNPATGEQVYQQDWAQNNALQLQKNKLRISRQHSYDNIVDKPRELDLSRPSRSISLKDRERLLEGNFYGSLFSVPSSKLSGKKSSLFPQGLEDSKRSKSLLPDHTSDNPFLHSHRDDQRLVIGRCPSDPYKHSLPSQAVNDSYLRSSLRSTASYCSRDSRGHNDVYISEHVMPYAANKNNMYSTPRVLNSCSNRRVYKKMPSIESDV
Chain of human GluN1-GluN2C NMDA receptor (Q14957 20-1233, other chains not shown): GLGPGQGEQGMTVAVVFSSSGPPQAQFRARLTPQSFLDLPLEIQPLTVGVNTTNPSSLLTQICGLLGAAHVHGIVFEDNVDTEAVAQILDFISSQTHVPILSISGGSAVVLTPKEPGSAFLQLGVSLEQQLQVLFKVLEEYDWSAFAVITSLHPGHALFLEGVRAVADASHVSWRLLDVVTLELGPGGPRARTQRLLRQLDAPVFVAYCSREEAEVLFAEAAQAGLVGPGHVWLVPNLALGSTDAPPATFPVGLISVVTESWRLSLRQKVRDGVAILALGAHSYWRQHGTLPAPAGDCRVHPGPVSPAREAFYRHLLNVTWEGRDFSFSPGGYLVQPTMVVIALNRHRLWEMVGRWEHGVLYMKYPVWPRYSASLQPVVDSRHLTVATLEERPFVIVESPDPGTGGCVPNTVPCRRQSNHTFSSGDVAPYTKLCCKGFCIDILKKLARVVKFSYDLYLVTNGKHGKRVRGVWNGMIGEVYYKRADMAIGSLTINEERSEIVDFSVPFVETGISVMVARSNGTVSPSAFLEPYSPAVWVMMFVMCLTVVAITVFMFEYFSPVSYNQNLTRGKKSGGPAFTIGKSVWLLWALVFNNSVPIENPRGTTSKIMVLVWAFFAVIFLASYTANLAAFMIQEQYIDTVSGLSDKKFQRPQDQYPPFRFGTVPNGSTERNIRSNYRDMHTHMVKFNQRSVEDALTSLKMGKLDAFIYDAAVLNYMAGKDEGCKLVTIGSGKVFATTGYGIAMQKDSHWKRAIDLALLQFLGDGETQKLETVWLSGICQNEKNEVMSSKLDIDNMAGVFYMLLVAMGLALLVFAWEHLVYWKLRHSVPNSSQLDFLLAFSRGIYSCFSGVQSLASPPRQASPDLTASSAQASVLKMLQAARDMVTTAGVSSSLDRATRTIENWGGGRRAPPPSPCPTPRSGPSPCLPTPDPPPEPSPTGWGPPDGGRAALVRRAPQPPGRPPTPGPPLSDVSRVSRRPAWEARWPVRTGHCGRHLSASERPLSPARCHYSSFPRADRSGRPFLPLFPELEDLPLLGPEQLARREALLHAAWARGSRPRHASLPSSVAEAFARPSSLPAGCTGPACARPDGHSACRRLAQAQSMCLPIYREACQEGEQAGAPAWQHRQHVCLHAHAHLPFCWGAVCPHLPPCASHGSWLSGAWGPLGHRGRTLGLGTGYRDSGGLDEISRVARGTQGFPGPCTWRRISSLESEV
Chain of 5-HT2A receptor (P28223 whole entry): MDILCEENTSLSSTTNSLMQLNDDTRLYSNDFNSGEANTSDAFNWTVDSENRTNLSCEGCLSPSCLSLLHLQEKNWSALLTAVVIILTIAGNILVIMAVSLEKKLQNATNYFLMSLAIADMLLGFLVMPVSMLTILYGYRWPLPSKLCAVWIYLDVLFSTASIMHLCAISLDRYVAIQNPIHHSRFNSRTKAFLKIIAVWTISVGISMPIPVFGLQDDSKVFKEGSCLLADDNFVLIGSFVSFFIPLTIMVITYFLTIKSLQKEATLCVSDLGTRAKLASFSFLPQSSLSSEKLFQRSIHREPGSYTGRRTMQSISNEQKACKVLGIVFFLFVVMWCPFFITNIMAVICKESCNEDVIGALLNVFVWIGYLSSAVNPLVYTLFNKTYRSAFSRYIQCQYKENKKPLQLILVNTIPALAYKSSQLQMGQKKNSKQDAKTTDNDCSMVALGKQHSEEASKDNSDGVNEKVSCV

Compound: CCC(=O)C(C[C@H](C)N(C)C)(c1ccccc1)c1ccccc1 [Dextromethadone, dextromethadone]
- Block trapped (BT), trapping [1]: 85.9% and 85.9%±1.9%
- Block (B) of 10/10 μM L-glutamate/glycine-evoked currents ([1]; listed as dextromethadone): 83.8%±1.2% and 83.8%
- Block trapped (BT), trapping ([1]; listed as dextromethadone): 85.9% and 85.9%±1.9%
- Residual block (BR) ([1]; listed as dextromethadone): 71.8%±1.1% and 71.8%
- calcium response (mean±SEM) ([2]; 0.04 μM L-Glu + 10 μM DXT): 0.5 ± 0.2
- calcium response (mean±SEM) ([2]; 0.04 μM L-Glu + 100 μM QA + 10 μM DXT): 3.4 ± 0.2
- calcium response (mean±SEM) ([2]; 0.04 μM L-Glu + 1000 μM QA + 10 μM DXT): 32 ± 0.7
- calcium response (mean±SEM) ([2]; 0.2 μM L-Glu + 10 μM DXT): 14 ± 0.4
- calcium response (mean±SEM) ([2]; 0.2 μM L-Glu + 100 μM QA + 10 μM DXT): 15 ± 0.5
- calcium response (mean±SEM) ([2]; 0.2 μM L-Glu + 1000 μM QA + 10 μM DXT): 35 ± 1.0
- % effect on calcium entry, 100 QA + 10 DXT ([2]; 100 μM QA + 10 μM DXT): −0.2 ± 0.2%
- calcium response (mean±SEM) ([2]; 1000 μM QA + 10 μM DXT): 34 ± 0.6
- % effect on calcium entry, 1000 QA + 10 DXT ([2]; 1000 μM QA + 10 μM DXT): 34 ± 0.6%
- calcium response (mean±SEM) ([2]; 1000 μM QA + 10 μg/ml GENT + 10 μM DXT): 34 ± 0.6
- calcium response (mean±SEM) ([2]; Table 41: 0.04 μM L-Glu + 10 μM DXT): 0.5 ± 0.2
- calcium response (mean±SEM) ([2]; Table 43: 0.2 μM L-Glu + 10 μM DXT): 14 ± 0.4
- residual current, % of pre-application level (GluN1/GluN2D receptor; 1 μM L-glutamate, −80 mV, control cells 102.5±[…]): 62.5±4.1%
- 10 μM or 1 μM L-glutamate elicited current (GluN1/GluN2D receptor; −30 mV to −80 mV): significantly reduced
- Ki (5-HT2A receptor): 520 nM
- conversion of dextromethadone to levomethadone in vivo ([3]; SAD and MAD subjects): No detectable conversion
- pharmacokinetic linearity ([3]; SAD and MAD, racially diversified subjects): linear pharmacokinetics with dose proportionality
- α, estimated cooperativity term ([4]; operational analysis for allosteric modulators): 0.26
- L-glutamate CRC HillSlope ([4]; with test item 49 nM): 1.2
- L-glutamate CRC LogEC50 ([4]; with test item 49 nM): −7.0
- L-glutamate CRC HillSlope ([4]; with test item 195 nM): 1.2
- L-glutamate CRC LogEC50 ([4]; with test item 195 nM): −6.9
- L-glutamate CRC HillSlope ([4]; with test item 781 nM): 1.2
- L-glutamate CRC LogEC50 ([4]; with test item 781 nM): −6.9
- L-glutamate CRC HillSlope ([4]; with test item 3.1 μM): 1.1
- L-glutamate CRC LogEC50 ([4]; with test item 3.1 μM): −6.9
- L-glutamate CRC HillSlope ([4]; with test item 12.5 μM): 1.3
- L-glutamate CRC LogEC50 ([4]; with test item 12.5 μM): −6.7
- L-glutamate CRC HillSlope ([4]; with test item 50 μM): 1.1
- L-glutamate CRC LogEC50 ([4]; with test item 50 μM): −6.4
